Legend:
[1] = tested on: common mosquito (Culex pipiens pallens); test: Test Example 1: mortality of larvae and inhibition of emergence of common mosquito; format: in vivo; settings: for Inhibitory ratio of emergence: 3.5 ppm, counted when all mosquitoes of no treatment group had emerged; for mortality at 3.5 ppm: Culex pipiens, 24 h, last instar larvae, after one day
Description: The emulsifiable concentrates of the following present compounds obtained according to Formulation example 2 were each diluted with water so as to obtain respective aqueous solutions containing 3.5 ppm of said compounds, respectively. One hundred ml of thus diluted aqueous solutions were poured into respective polyethylene cups of 180 ml volume, and 20 of the last instar larvae of common mosquito (Culex pipiens pallens) were liberated thereto. After one day, the dead or alive of the larvae were examined. Thereafter, the feed was added to respective cups and the number of emerged mosquitoes of the respective cups was counted when all the mosquitoes of no treatment group had […] to calculate the inhibitory ratios of the emergence. The mortality and the inhibitory ratio of the emergence are shown according to the following three criteria: mortality: A; 90% or more, […] inhibitory: A; 90% or more, ratio of emergence B; less than 90% to 80% C; less than 80%.

[2] = tested on: carmine spider mite (Tetranychus cinnabarinus); test: Test Example 8: degree of damage of kidney bean plant by carmine spider mite; format: in vivo; set-up: key: -: No damage is observed.; +: Slight damage is observed.; ++: The same damage as in the untreated plot is observed; settings: 500 ppm, sprayed 15 ml/pot plus 2 ml to soil; after 8 days; 25° C.
Description: The female adults of carmine spider mite (Tetranychus cinnabarinus) were put at a rate of 10 adults/leaf on the leaves of potted kidney bean (at the primordial leaf stage) which had elapsed 7 days after sowing, and placed in a constant-temperature room kept at 25° C. After 6 days, the 200-fold aqueous dilute solutions (corresponding to 500 ppm), prepared from the emulsifiable concentrates of the following present compounds and control compounds prepared according to Formulation example 2, were each sprayed at a rate of 15 ml/pot on a turn table. At the same time, the soil in the pot was treated with 2 ml of each aqueous solution. After 8 days, the degree of damage of the plant by the mite was examined.
-: No damage is observed.
+: Slight damage is observed.
++: The same damage as in the untreated plot is observed.

SMILES	Inhibitory ratio of emergence [1]	mortality at 3.5 ppm [1] [%]	Degree of damage [2]
C#CC(C)(CCCc1ccc(F)c(Oc2ccccc2)n1)c1ccc(OCC)cc1 (centres unmarked) [(20)]	A (90% or more)	> 90	- ~ +
C#CC(C)(CCCc1ccc(F)c(Oc2ccc(F)cc2)c1)c1ccc(OCC)cc1 (centres unmarked) [(38), 3-(4-Ethoxyphenyl)-3-methyl-6-{3-(4-fluorophenoxy)-4-fluorophenyl}-1-hexyne]	A (90% or more)	> 90	
C#CC(C)(CCCc1ccc(F)c(Oc2ccccc2)c1)c1ccc2c(c1)OCO2 (centres unmarked) [(12), 3-(3,4-Methylenedioxyphenyl)-3-methyl-6-(3-phenoxy-4-fluorophenyl)-1-hexyne]	A (90% or more)	> 90	
C#CC(C)(CCCc1ccc(F)c(Cc2ccccc2)c1)c1ccc(OCC)cc1 (centres unmarked) [(30), 3-(4-Ethoxyphenyl)-3-methyl-6-(3-benzyl-4-fluorophenyl)-1-hexyne]	A (90% or more)	> 90	
C#CC(C)(CCCc1cccc(Sc2ccccc2)c1)c1ccc(OCC)cc1 (centres unmarked) [(22), 3-(4-Ethoxyphenyl)-3-methyl-6-(3-phenylthiophenyl)-1-hexyne]	A (90% or more)	10 to 90	
C#CC(C)(CCCc1cccc(Oc2ccc(F)cc2)c1)c1ccc(OCC)cc1 (centres unmarked) [(15), 3-(4-Ethoxyphenyl)-3-methyl-6-{3-(4-fluorophenoxy)phenyl}-1-hexyne]	A (90% or more)	> 90	
C#CC(C)(CCCc1cccc(Oc2ccccc2)c1)c1ccc(F)cc1 (centres unmarked) [(35), 3-(4-Fluorophenyl)-3-methyl-6-(3-phenoxyphenyl)-1-hexyne]	A (90% or more)	> 90	
C#CC(CC)(CCCc1ccc(F)c(Oc2ccccc2)c1)c1ccc(OCC)cc1 (centres unmarked) [(29), 3-(4-Ethoxyphenyl)-3-ethyl-6-(3-phenoxy-4-fluorophenyl)-1-hexyne]	A (90% or more)	> 90	
C#CC(C)(CCCc1ccc(F)c(Oc2ccc(Cl)cc2)c1)c1ccc(OCC)cc1 (centres unmarked) [(34), 3-(4-Ethoxyphenyl)-3-methyl-6-{3-(4-chlorophenoxy)-4-fluorophenyl}-1-hexyne]	A (90% or more)	> 90	
C#CC(C)(CCCc1cccc(Oc2ccccc2)n1)c1ccc(OCC)cc1 (centres unmarked) [(18), 3-(4-ethoxyphenyl)-3-methyl-6-(6-phenoxypyridin-2-yl)-1-hexyne]	A (90% or more)	> 90	- ~ +
C#CC(C)(CCCc1cccc(Oc2ccccc2)c1)c1ccc(OCC)c(Cl)c1 (centres unmarked) [(16), 3-(3-Chloro-4-ethoxyphenyl)-3-methyl-6-(3-phenoxyphenyl)-1-hexyne]	A (90% or more)	10 to 90	-
C#CC(C)(CCCc1cccc(Oc2ccccc2)c1)c1ccc2c(c1)OCO2 (centres unmarked) [(14), 3-(3,4-Methylenedioxyphenyl)-3-methyl-6-(3-phenoxyphenyl)-1-hexyne]	A (90% or more)	> 90	
C=CC(C)(CCCc1cccc(Oc2ccccc2)n1)c1ccc(OCC)cc1 (centres unmarked) [(19), 3-(4-Ethoxyphenyl)-3-methyl-6-(6-phenoxypyridin-2-yl)-1-hexene]	A (90% or more)	10 to 90	
C#CC(C)(CCCc1ccc(F)c(Oc2ccc(C)cc2)c1)c1ccc(OCC)cc1 (centres unmarked) [(33), 3-(4-Ethoxyphenyl)-3-methyl-6-{3-(4-methylphenoxy)-4-fluorophenyl}-1-hexyne]	A (90% or more)	> 90	
C#CC(C)(CCCc1ccc(F)c(Oc2ccccc2)c1)c1ccc(OCC=C)c(Cl)c1 (centres unmarked) [(40)]	A (90% or more)	10 to 90	
C#CC(C)(CCCc1cccc(Oc2ccccc2)c1)c1ccc(OC)cc1 (centres unmarked) [(24), 3-(4-Methoxyphenyl)-3-methyl-6-(3-phenoxyphenyl)-1-hexyne]	A (90% or more)	10 to 90	
Cc1cc(Cl)ccc1N=CN(C)C [(E), Chlordimeform, reference compound]			- ~ +
C#CC(CCCc1cccc(Oc2ccccc2)c1)c1ccc(OCC)cc1 (centres unmarked) [(28), 3-(4-Ethoxyphenyl)-6-(3-phenoxyphenyl)-1-hexyne]	A (90% or more)	> 90	
C#CC(CC)(CCCc1cccc(Oc2ccccc2)c1)c1ccc(Cl)cc1 (centres unmarked) [(26), 3-(4-Chlorophenyl)-3-ethyl-6-(3-phenoxyphenyl)-1-hexyne]	A (90% or more)	> 90	
C=CC(C)(CCCc1ccc(F)c(Nc2ccccc2)c1)c1ccc(OCC)cc1 (centres unmarked) [(31), 3-(4-Ethoxyphenyl)-3-methyl-6-(3-anilino-4-fluorophenyl)-1-hexene]	A (90% or more)	> 90	
C#CC(CC)(CCCc1ccc(F)c(Oc2ccccc2)c1)c1ccc(Cl)cc1 (centres unmarked) [(41), 3-(4-Chlorophenyl)-3-ethyl-6-(3-phenoxy-4-fluorophenyl)-1-hexyne]	A (90% or more)	> 90	
C#CC(C)(CCCc1ccc(F)c(Oc2ccccc2)c1)c1ccc(F)cc1 (centres unmarked) [(9), 3-(4-Fluorophenyl)-3-methyl-6-(3-phenoxy-4-fluorophenyl)-1-hexyne]	A (90% or more)	> 90	
C#CC(CC)(CCCc1cccc(Oc2ccccc2)c1)c1ccc(OCC)cc1 (centres unmarked) [(32), 3-(4-Ethoxyphenyl)-3-ethyl-6-(3-phenoxyphenyl)-1-hexyne]	A (90% or more)	> 90	
C#CC(C)(CCCc1cccc(Oc2ccccc2)c1)c1ccc(CC)cc1 (centres unmarked) [(23), 3-(4-Ethylphenyl)-3-methyl-6-(3-phenoxyphenyl)-1-hexyne]	A (90% or more)	> 90	
C#CC(C)(CCCc1cccc(Oc2ccccc2)n1)c1ccc(OC)cc1 (centres unmarked) [(44), 3-(4-methoxyphenyl)-3-methyl-6-(6-phenoxypyridin-2-yl)-1-hexyne]	A (90% or more)	10 to 90	
C#CC(CCCC)(CCCc1ccc(F)c(Oc2ccccc2)c1)c1ccc(OCC)cc1 (centres unmarked) [(42), 3-(4-Ethoxyphenyl)-3-n-butyl-6-(3-phenoxy-4-fluorophenyl)-1-hexyne]	A (90% or more)	10 to 90	
C#CC(C)(CCCc1ccc(F)c(Oc2ccccc2)c1)c1ccc(OC)cc1 (centres unmarked) [(5), 3-(4-Methoxyphenyl)-3-methyl-6-(3-phenoxy-4-fluorophenyl)-1-hexyne]	A (90% or more)	> 90	
C#CC(C)(CCCc1ccc(F)c(Oc2ccccc2)c1)c1ccc(Cl)c(Cl)c1 (centres unmarked) [(36), 3-(3,4-Dichlorophenyl)-3-methyl-6-(3-phenoxy-4-fluorophenyl)-1-hexyne]	A (90% or more)	10 to 90	
C#CC(C)(CCCc1ccc(F)c(Nc2ccccc2)c1)c1ccc(OCC)cc1 (centres unmarked) [(21), 3-(4-Ethoxyphenyl)-3-methyl-6-(3-anilino-4-fluorophenyl)-1-hexyne]	A (90% or more)	> 90	
C#CC(C)(CCCc1ccc(F)c(Oc2ccccc2)c1)c1ccc(OC(F)F)c(Cl)c1 (centres unmarked) [(27)]	A (90% or more)	10 to 90	

Source: patent publication US4772633A, “6-pyridyl- and 6-phenyl-3-phenyl-1-hexenes and -1-hexynes, composition containing them, and insecticidal and acaricidal method of using them” (Sumitomo Chemical Company, Limited, priority 1986, dated 1988)
